Columns and labels:
Canis familiaris [1] = test: Diuretic effect in mongrel dog assessed as urinary excretion of Na+ at 0.1 mg/kg, iv after 3 hrs (reference value: 0.10 +/- 0.02 mequiv/kg); assay type: functional, Canis lupus familiaris, Urine
Canis familiaris [2] = test: Diuretic effect in mongrel dog assessed as urinary excretion of K+ at 0.25 mg/kg, iv after 3 hrs (reference value: 0.16 +/- 0.01 mequiv/kg); assay type: functional, Canis lupus familiaris, Urine
Canis familiaris [3] = test: Diuretic effect in mongrel dog assessed as urinary excretion of Cl- at 0.01 mg/kg, po after 3 hrs (reference value: 0.08 +/- 0.02 mequiv/kg); assay type: functional, Canis lupus familiaris, Urine
Canis familiaris [4] = test: Diuretic effect in mongrel dog assessed as urinary excretion of K+ at 0.01 mg/kg, po after 3 hrs (reference value: 0.16 +/- 0.01 mequiv/kg); assay type: functional, Canis lupus familiaris, Urine
Canis familiaris [5] = test: Diuretic effect in mongrel dog assessed as urinary excretion of Na+ at 0.25 mg/kg, iv after 3 hrs (reference value: 0.10 +/- 0.02 mequiv/kg); assay type: functional, Canis lupus familiaris, Urine
Canis familiaris [6] = test: Diuretic effect in mongrel dog assessed as urinary excretion of Na+ at 0.01 mg/kg, po after 3 hrs (reference value: 0.10 +/- 0.02 mequiv/kg); assay type: functional, Canis lupus familiaris, Urine
Canis familiaris [7] = test: Diuretic effect in mongrel dog assessed as urinary excretion of Cl- at 0.25 mg/kg, iv after 3 hrs (reference value: 0.08 +/- 0.02 mequiv/kg); assay type: functional, Canis lupus familiaris, Urine
Canis familiaris [8] = test: Diuretic effect in mongrel dog assessed as urinary excretion of water at 0.01 mg/kg, iv after 3 hrs (reference value: 0.93 +/- 0.35 ml/kg)
Canis familiaris [9] = test: Diuretic effect in mongrel dog assessed as urinary excretion of water at 0.25 mg/kg, iv after 3 hrs (reference value: 0.93 +/- 0.35 ml/kg); assay type: functional, Canis lupus familiaris, Urine
Canis familiaris [10] = test: Diuretic effect in mongrel dog assessed as urinary excretion of K+ at 0.1 mg/kg, iv after 3 hrs (reference value: 0.16 +/- 0.01 mequiv/kg); assay type: functional, Canis lupus familiaris, Urine
Canis familiaris [11] = test: Diuretic effect in mongrel dog assessed as urinary excretion of water at 0.1 mg/kg, iv after 3 hrs (reference value: 0.93 +/- 0.35 ml/kg); assay type: functional, Canis lupus familiaris, Urine
Canis familiaris [12] = test: Diuretic effect in mongrel dog assessed as urinary excretion of Cl- at 0.1 mg/kg, iv after 3 hrs (reference value: 0.08 +/- 0.02 mequiv/kg); assay type: functional, Canis lupus familiaris, Urine
Canis familiaris [13] = test: Diuretic effect in mongrel dog assessed as urinary excretion of Cl- at 1 mg/kg, po after 6 hrs (reference value: 0.17 +/- 0.09 mequiv/kg); assay type: functional, Canis lupus familiaris, Urine
Canis familiaris [14] = test: Diuretic effect in mongrel dog assessed as urinary excretion of Na+ at 0.25 mg/kg, po after 6 hrs (reference value: 0.27 +/- 0.09 mequiv/kg); assay type: functional, Canis lupus familiaris, Urine
Canis familiaris [15] = test: Diuretic effect in mongrel dog assessed as urinary excretion of Cl- at 5 mg/kg, iv after 3 hrs (reference value: 0.08 +/- 0.02 mequiv/kg); assay type: functional, Canis lupus familiaris, Urine
Canis familiaris [16] = test: Diuretic effect in mongrel dog assessed as urinary excretion of Na+ at 1 mg/kg, iv after 3 hrs (reference value: 0.10 +/- 0.02 mequiv/kg); assay type: functional, Canis lupus familiaris, Urine
Canis familiaris [17] = test: Diuretic effect in mongrel dog assessed as urinary excretion of Na+ at 5 mg/kg, po after 3 hrs (reference value: 0.10 +/- 0.02 mequiv/kg); assay type: functional, Canis lupus familiaris, Urine
Canis familiaris [18] = test: Diuretic effect in mongrel dog assessed as urinary excretion of water at 0.25 mg/kg, po after 6 hrs (reference value: 1.73 +/- 0.46 ml/kg); assay type: functional, Canis lupus familiaris, Urine
Canis familiaris [19] = test: Diuretic effect in mongrel dog assessed as urinary excretion of Cl- at 5 mg/kg, po after 3 hrs (reference value: 0.08 +/- 0.02 mequiv/kg); assay type: functional, Canis lupus familiaris, Urine
Canis familiaris [20] = test: Diuretic effect in mongrel dog assessed as urinary excretion of K+ at 1 mg/kg, po after 3 hrs (reference value: 0.16 +/- 0.01 mequiv/kg); assay type: functional, Canis lupus familiaris, Urine
Canis familiaris [21] = test: Diuretic effect in mongrel dog assessed as urinary excretion of Na+ at 1 mg/kg, po after 6 hrs (reference value: 0.27 +/- 0.09 mequiv/kg); assay type: functional, Canis lupus familiaris, Urine
Canis familiaris [22] = test: Diuretic effect in mongrel dog assessed as urinary excretion of K+ at 5 mg/kg, po after 3 hrs (reference value: 0.16 +/- 0.01 mequiv/kg); assay type: functional, Canis lupus familiaris, Urine
Canis familiaris [23] = test: Diuretic effect in mongrel dog assessed as urinary excretion of Cl- at 0.25 mg/kg, iv after 3 hrs (reference value: 0.08 +/- 0.02 mequiv/kg)
Canis familiaris [24] = test: Diuretic effect in mongrel dog assessed as urinary excretion of water at 1 mg/kg, iv after 3 hrs (reference value: 0.93 +/- 0.35 ml/kg); assay type: functional, Canis lupus familiaris, Urine
Canis familiaris [25] = test: Diuretic effect in mongrel dog assessed as urinary excretion of water at 1 mg/kg, po after 3 hrs (reference value: 0.93 +/- 0.35 ml/kg); assay type: functional, Canis lupus familiaris, Urine
Canis familiaris [26] = test: Diuretic effect in mongrel dog assessed as urinary excretion of K+ at 5 mg/kg, iv after 3 hrs (reference value: 0.16 +/- 0.01 mequiv/kg); assay type: functional, Canis lupus familiaris, Urine
Canis familiaris [27] = test: Diuretic effect in mongrel dog assessed as urinary excretion of Na+ at 1 mg/kg, po after 3 hrs (reference value: 0.10 +/- 0.02 mequiv/kg); assay type: functional, Canis lupus familiaris, Urine
Canis familiaris [28] = test: Diuretic effect in mongrel dog assessed as urinary excretion of K+ at 1 mg/kg, po after 6 hrs (reference value: 0.24 +/- 0.03 mequiv/kg); assay type: functional, Canis lupus familiaris, Urine
Canis familiaris [29] = test: Diuretic effect in mongrel dog assessed as urinary excretion of K+ at 1 mg/kg, iv after 3 hrs (reference value: 0.16 +/- 0.01 mequiv/kg); assay type: functional, Canis lupus familiaris, Urine
Canis familiaris [30] = test: Diuretic effect in mongrel dog assessed as urinary excretion of water at 1 mg/kg, po after 6 hrs (reference value: 1.73 +/- 0.46 ml/kg); assay type: functional, Canis lupus familiaris, Urine
Canis familiaris [31] = test: Diuretic effect in mongrel dog assessed as urinary excretion of water at 5 mg/kg, iv after 3 hrs (reference value: 0.93 +/- 0.35 ml/kg); assay type: functional, Canis lupus familiaris, Urine
Canis familiaris [32] = test: Diuretic effect in mongrel dog assessed as urinary excretion of K+ at 0.25 mg/kg, po after 6 hrs (reference value: 0.24 +/- 0.03 mequiv/kg); assay type: functional, Canis lupus familiaris, Urine
Canis familiaris [33] = test: Diuretic effect in mongrel dog assessed as urinary excretion of Na+ at 5 mg/kg, iv after 3 hrs (reference value: 0.10 +/- 0.02 mequiv/kg); assay type: functional, Canis lupus familiaris, Urine
Canis familiaris [34] = test: Diuretic effect in mongrel dog assessed as urinary excretion of water at 5 mg/kg, po after 3 hrs (reference value: 0.93 +/- 0.35 ml/kg); assay type: functional, Canis lupus familiaris, Urine
Canis familiaris [35] = test: Diuretic effect in mongrel dog assessed as urinary excretion of Cl- at 1 mg/kg, po after 3 hrs (reference value: 0.08 +/- 0.02 mequiv/kg); assay type: functional, Canis lupus familiaris, Urine
Canis familiaris [36] = test: Diuretic effect in mongrel dog assessed as urinary excretion of Cl- at 1 mg/kg, iv after 3 hrs (reference value: 0.08 +/- 0.02 mequiv/kg); assay type: functional, Canis lupus familiaris, Urine
Canis familiaris [37] = test: Diuretic effect in mongrel dog assessed as urinary excretion of Cl- at 0.25 mg/kg, po after 3 hrs (reference value: 0.08 +/- 0.02 mequiv/kg); assay type: functional, Canis lupus familiaris, Urine
Canis familiaris [38] = test: Diuretic effect in mongrel dog assessed as urinary excretion of K+ at 0.25 mg/kg, po after 3 hrs (reference value: 0.16 +/- 0.01 mequiv/kg); assay type: functional, Canis lupus familiaris, Urine
Canis familiaris [39] = test: Diuretic effect in mongrel dog assessed as urinary excretion of Na+ at 0.25 mg/kg, po after 3 hrs (reference value: 0.10 +/- 0.02 mequiv/kg); assay type: functional, Canis lupus familiaris, Urine
Canis familiaris [40] = test: Diuretic effect in mongrel dog assessed as urinary excretion of Cl- at 1 mg/kg, po after 3 hrs (reference value: 0.08 +/- 0.02 mequiv/kg)
Canis familiaris [41] = test: Diuretic effect in mongrel dog assessed as urinary excretion of water at 0.25 mg/kg, po after 3 hrs (reference value: 0.93 +/- 0.35 ml/kg); assay type: functional, Canis lupus familiaris, Urine

## CCCCNc1cc(C(=O)O)cc(S(N)(=O)=O)c1Oc1ccccc1 [BUMETANIDE]
Canis familiaris [1]
  Activity: 2.4 milliequivalent/kg
Canis familiaris [2]
  Activity: 0.84 milliequivalent/kg
Canis familiaris [3]
  Activity: 1.4 milliequivalent/kg
Canis familiaris [4]
  Activity: 0.27 milliequivalent/kg
Canis familiaris [5]
  Activity: 4 milliequivalent/kg
Canis familiaris [6]
  Activity: 0.92 milliequivalent/kg
Canis familiaris [7]
  Activity: 5.7 milliequivalent/kg
Canis familiaris [8]
  Activity: 10 mL/kg
Canis familiaris [9]
  Activity: 39 mL/kg
Canis familiaris [10]
  Activity: 0.44 milliequivalent/kg
Canis familiaris [11]
  Activity: 26 mL/kg
Canis familiaris [12]
  Activity: 3.5 milliequivalent/kg

## O=CNc1cc(C(=O)O)cc(OCc2ccccc2)c1C(=O)c1ccccc1
Canis familiaris [1]
  Activity: 1 milliequivalent/kg
Canis familiaris [13]
  Activity: 3.3 milliequivalent/kg
Canis familiaris [14]
  Activity: 2.1 milliequivalent/kg
Canis familiaris [15]
  Activity: 4.5 milliequivalent/kg
Canis familiaris [16]
  Activity: 1.1 milliequivalent/kg
Canis familiaris [17]
  Activity: 3.1 milliequivalent/kg
Canis familiaris [18]
  Activity: 18 mL/kg
Canis familiaris [19]
  Activity: 4.5 milliequivalent/kg
Canis familiaris [20]
  Activity: 0.51 milliequivalent/kg
Canis familiaris [21]
  Activity: 2.5 milliequivalent/kg
Canis familiaris [22]
  Activity: 1.09 milliequivalent/kg
Canis familiaris [23]
  Activity: 2.6 milliequivalent/kg
Canis familiaris [24]
  Activity: 9 mL/kg
Canis familiaris [25]
  Activity: 21 mL/kg
Canis familiaris [26]
  Activity: 0.63 milliequivalent/kg
Canis familiaris [27]
  Activity: 2.5 milliequivalent/kg
Canis familiaris [28]
  Activity: 0.49 milliequivalent/kg
Canis familiaris [29]
  Activity: 0.49 milliequivalent/kg
Canis familiaris [30]
  Activity: 22 mL/kg
Canis familiaris [31]
  Activity: 21 mL/kg
Canis familiaris [32]
  Activity: 0.41 milliequivalent/kg
Canis familiaris [33]
  Activity: 2.2 milliequivalent/kg
Canis familiaris [10]
  Activity: 0.24 milliequivalent/kg
Canis familiaris [34]
  Activity: 33 mL/kg
Canis familiaris [35]
  Activity: 3.3 milliequivalent/kg
Canis familiaris [11]
  Activity: 9 mL/kg
Canis familiaris [12]
  Activity: 1.3 milliequivalent/kg
Canis familiaris [36]
  Activity: 3.1 milliequivalent/kg

## CCCCSc1cc(C(=O)O)cc(NC=O)c1C(=O)c1ccccc1
Canis familiaris [16]
  Activity: 2.3 milliequivalent/kg
Canis familiaris [37]
  Activity: 0.6 milliequivalent/kg
Canis familiaris [38]
  Activity: 0.28 milliequivalent/kg
Canis familiaris [39]
  Activity: 0.5 milliequivalent/kg
Canis familiaris [40]
  Activity: 2.1 milliequivalent/kg
Canis familiaris [24]
  Activity: 21 mL/kg
Canis familiaris [29]
  Activity: 0.65 milliequivalent/kg
Canis familiaris [41]
  Activity: 17 mL/kg
